Assay results: US20250205344A1, “2,4-DIOXOTETRAHYDROPYRIMIDINYL DERATIVES AS DEGRONS IN PROTACS” (GLAXOSMITHKLINE INTELLECTUAL PROPERTY DEVELOPMENT LIMITED, priority 2022, published 2025)
Structures can show the parent of a compound that is named as a salt.

Molecular target: T1, Androgen Receptor (Homo sapiens, UniProt P10275, T878A)
T1 construct: the AR gene was modified, using CRISPR/Cas9 editing, so the expressed AR protein included an 11 amino acid HiBiT tag; endogenous in cells; host or cells: clonal LnCaP-derived line, AR gene edited by CRISPR/Cas9
T1 sequence (P10275 whole entry T878A): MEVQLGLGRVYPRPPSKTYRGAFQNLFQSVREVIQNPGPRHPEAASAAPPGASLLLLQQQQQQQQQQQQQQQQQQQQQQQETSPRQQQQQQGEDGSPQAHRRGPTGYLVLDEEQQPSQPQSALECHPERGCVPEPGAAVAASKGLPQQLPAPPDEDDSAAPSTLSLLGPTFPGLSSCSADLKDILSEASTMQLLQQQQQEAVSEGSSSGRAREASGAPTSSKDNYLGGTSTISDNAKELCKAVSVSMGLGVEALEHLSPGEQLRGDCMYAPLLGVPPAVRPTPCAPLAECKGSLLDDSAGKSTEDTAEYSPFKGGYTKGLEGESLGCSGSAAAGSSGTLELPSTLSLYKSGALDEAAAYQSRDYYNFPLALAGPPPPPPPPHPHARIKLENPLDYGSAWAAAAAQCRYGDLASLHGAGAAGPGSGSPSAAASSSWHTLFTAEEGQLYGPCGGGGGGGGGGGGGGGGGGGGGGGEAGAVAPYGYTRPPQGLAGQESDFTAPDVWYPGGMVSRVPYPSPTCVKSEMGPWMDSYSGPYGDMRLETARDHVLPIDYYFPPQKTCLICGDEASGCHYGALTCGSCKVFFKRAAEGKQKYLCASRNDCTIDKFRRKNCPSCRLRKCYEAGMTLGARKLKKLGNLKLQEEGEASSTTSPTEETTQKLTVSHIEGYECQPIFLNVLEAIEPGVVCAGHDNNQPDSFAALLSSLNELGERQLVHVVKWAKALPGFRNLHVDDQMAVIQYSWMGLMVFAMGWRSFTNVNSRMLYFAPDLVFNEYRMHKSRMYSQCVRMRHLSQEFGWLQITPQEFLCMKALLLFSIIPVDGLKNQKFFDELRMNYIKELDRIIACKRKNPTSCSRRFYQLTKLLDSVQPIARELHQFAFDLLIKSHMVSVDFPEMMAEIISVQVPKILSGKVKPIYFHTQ
T1 sequence (Q96SW2 whole entry partner): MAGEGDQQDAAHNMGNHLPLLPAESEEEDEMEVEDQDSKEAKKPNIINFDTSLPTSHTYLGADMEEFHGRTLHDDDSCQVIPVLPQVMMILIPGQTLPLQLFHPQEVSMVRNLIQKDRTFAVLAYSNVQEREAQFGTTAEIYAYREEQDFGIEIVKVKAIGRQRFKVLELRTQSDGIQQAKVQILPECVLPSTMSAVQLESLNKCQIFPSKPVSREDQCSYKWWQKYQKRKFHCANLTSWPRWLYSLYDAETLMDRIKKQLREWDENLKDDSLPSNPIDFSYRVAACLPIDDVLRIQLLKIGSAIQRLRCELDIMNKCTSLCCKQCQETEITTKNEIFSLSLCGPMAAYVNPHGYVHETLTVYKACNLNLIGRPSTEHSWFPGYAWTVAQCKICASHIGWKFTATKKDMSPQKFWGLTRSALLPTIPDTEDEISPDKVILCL
T1 sequence (Q16531 whole entry partner): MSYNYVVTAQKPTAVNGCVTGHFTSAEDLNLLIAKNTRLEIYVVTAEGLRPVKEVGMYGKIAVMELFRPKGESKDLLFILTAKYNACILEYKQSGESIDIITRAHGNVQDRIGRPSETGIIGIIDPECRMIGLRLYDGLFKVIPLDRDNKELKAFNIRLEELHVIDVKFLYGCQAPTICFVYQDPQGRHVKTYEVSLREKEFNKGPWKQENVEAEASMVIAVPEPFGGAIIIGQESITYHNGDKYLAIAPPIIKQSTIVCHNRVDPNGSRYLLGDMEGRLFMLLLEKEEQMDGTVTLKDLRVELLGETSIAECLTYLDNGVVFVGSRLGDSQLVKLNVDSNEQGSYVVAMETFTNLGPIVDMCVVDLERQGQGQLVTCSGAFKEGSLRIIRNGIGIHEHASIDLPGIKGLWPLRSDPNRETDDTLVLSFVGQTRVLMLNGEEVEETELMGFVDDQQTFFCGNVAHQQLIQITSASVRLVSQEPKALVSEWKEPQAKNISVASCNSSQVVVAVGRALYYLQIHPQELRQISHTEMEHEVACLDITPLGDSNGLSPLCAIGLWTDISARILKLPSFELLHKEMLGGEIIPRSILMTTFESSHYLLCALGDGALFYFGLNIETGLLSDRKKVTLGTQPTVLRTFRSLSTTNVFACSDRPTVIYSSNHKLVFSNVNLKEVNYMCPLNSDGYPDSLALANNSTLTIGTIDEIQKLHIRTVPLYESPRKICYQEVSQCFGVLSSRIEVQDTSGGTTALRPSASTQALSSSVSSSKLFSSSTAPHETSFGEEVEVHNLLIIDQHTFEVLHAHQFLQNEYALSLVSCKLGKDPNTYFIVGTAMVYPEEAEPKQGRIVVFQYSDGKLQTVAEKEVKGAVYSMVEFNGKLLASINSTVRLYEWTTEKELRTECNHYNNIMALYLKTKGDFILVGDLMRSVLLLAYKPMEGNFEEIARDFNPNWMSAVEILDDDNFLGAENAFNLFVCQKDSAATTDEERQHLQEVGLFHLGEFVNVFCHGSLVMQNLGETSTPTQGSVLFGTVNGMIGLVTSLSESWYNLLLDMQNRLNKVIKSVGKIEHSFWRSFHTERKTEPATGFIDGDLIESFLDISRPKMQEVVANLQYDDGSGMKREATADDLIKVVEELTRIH
Test: Androgen Receptor Degradation Assay (Nano-Glo HiBiT)
Format: cell-based
Conditions: LNCaP, 18 h, HiBiT-tagged AR in human LnCaP cells, read-out: mean asymptote max
Method in brief: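 LnCaP cells with CRISPR-knocked-in N-terminal HiBiT-tagged AR (10,000/well) treated 18 h at 37 °C with PROTACs over 11 threefold concentrations; lytic HiBiT luminescence normalised to DMSO (0%) and cell-free (100%) controls. Relative DC50 = 4-parameter fit inflection; absolute DC50 = 50% degradation interpolation; Dmax = maximum observed degradation.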

Row | Structure (SMILES) | Dmax [%]
1 | N#Cc1ccc(O[C@H]2CC[C@H](NC(=O)c3ccc(N4CCC(CN5CCC[C@@H](n6ccc7c(N8CCC(=O)NC8=O)cccc76)C5)CC4)nn3)CC2)cc1Cl [EAR184, N-((1r,4r)-4-(3-Chloro-4-cyanophenoxy)cyclohexyl)-6-(4-(((S)-3-(4-(2,4-dioxotetrahydropyrimidin-1(2H)-yl)-1H-indol-1-yl)piperidin-1-yl)methyl)piperidin-1-yl)pyridazine-3-carboxamide hydrochloride] | ≥ 50
2 | N#Cc1ccc(O[C@H]2CC[C@H](NC(=O)c3ccc(N4CCC(CN5CCC6(CC5)CC(n5ccc7c(N8CCC(=O)NC8=O)cccc75)C6)CC4)nn3)CC2)cc1Cl [EAR185, N-((1r,4r)-4-(3-Chloro-4-cyanophenoxy)cyclohexyl)-6-(4-((2-(4-(2,4-dioxotetrahydropyrimidin-1(2H)-yl)-1H-indol-1-yl)-7-azaspiro[3.5]nonan-7-yl)methyl)piperidin-1-yl)pyridazine-3-carboxamide hydrochloride] | ≥ 50
3 | N#Cc1ccc(O[C@H]2CC[C@H](NC(=O)c3ccc(N4CCC(CN5CCC(n6ccc7c(N8CCC(=O)NC8=O)cccc76)CC5)CC4)cn3)CC2)cc1Cl [EAR186, N-((1r,4r)-4-(3-Chloro-4-cyanophenoxy)cyclohexyl)-5-(4-((4-(4-(2,4-dioxotetrahydropyrimidin-1(2H)-yl)-1H-indol-1-yl)piperidin-1-yl)methyl)piperidin-1-yl)picolinamide] | ≥ 50
4 | N#Cc1ccc(O[C@H]2CC[C@H](NC(=O)c3ccc(N4CCC(CN5CCC(n6ccc7c(N8CCC(=O)NC8=O)cccc76)CC5)CC4)cc3F)CC2)cc1Cl [EAR187, N-((1r,4r)-4-(3-Chloro-4-cyanophenoxy)cyclohexyl)-4-(4-((4-(4-(2,4-dioxotetrahydropyrimidin-1(2H)-yl)-1H-indol-1-yl)piperidin-1-yl)methyl)piperidin-1-yl)-2-fluorobenzamide] | ≥ 50
5 | N#Cc1ccc(O[C@H]2CC[C@H](NC(=O)c3ccc(O[C@H]4CCN(C(=O)CN5CCC(n6ccc7c(N8CCC(=O)NC8=O)cccc76)CC5)C4)nn3)CC2)cc1Cl [EAR188, N-((1r,4S)-4-(3-Chloro-4-cyanophenoxy)cyclohexyl)-6-(((S)-1-(2-(4-(4-(2,4-dioxotetrahydropyrimidin-1(2H)-yl)-1H-indol-1-yl)piperidin-1-yl)acetyl)pyrrolidin-3-yl)oxy)pyridazine-3-carboxamide] | ≥ 50
6 | N#Cc1ccc(O[C@H]2CC[C@H](NC(=O)c3cnc(N4CCC(CN5CCC(n6ncc7c(N8CCC(=O)NC8=O)c(F)ccc76)CC5)CC4)cn3)CC2)cc1C(F)(F)F [EAR189, N-((1r,4r)-4-(4-Cyano-3-(trifluoromethyl)phenoxy)cyclohexyl)-5-(4-((4-(4-(2,4-dioxotetrahydropyrimidin-1(2H)-yl)-5-fluoro-1H-indazol-1-yl)piperidin-1-yl)methyl)piperidin-1-yl)pyrazine-2-carboxamide hydrochloride] | ≥ 50
7 | N#Cc1ccc(O[C@H]2CC[C@H](NC(=O)c3cnc(N4CCC(CN5CCC(n6ncc7c(N8CCC(=O)NC8=O)c(F)ccc76)CC5)CC4)cn3)CC2)cc1Cl [EAR190, N-((1r,4r)-4-(3-Chloro-4-cyanophenoxy)cyclohexyl)-5-(4-((4-(4-(2,4-dioxotetrahydropyrimidin-1(2H)-yl)-5-fluoro-1H-indazol-1-yl)piperidin-1-yl)methyl)piperidin-1-yl)pyrazine-2-carboxamide hydrochloride] | ≥ 50
8 | N#Cc1ccc(O[C@H]2CC[C@H](NC(=O)c3ccc(N4CCC5(CC4)CC(N4CCC(n6ccc7c(N8CCC(=O)NC8=O)cccc76)CC4)C5)nn3)CC2)cc1Cl [EAR193, N-((1r,4r)-4-(3-Chloro-4-cyanophenoxy)cyclohexyl)-6-(2-(4-(4-(2,4-dioxotetrahydropyrimidin-1(2H)-yl)-1H-indol-1-yl)piperidin-1-yl)-7-azaspiro[3.5]nonan-7-yl)pyridazine-3-carboxamide] | ≥ 50
9 | N#Cc1ccc(O[C@H]2CC[C@H](NC(=O)c3ccc(N4CCN(CC5CCC(n6ccc7c(N8CCC(=O)NC8=O)cccc76)CC5)CC4)nn3)CC2)cc1Cl (some centres unmarked) [EAR194, N-((1r,4r)-4-(3-Chloro-4-cyanophenoxy)cyclohexyl)-6-(4-((4-(4-(2,4-dioxotetrahydropyrimidin-1(2H)-yl)-1H-indol-1-yl)cyclohexyl)methyl)piperazin-1-yl)pyridazine-3-carboxamide, trifluoroacetic acid salt] | ≥ 50
10 | N#Cc1ccc(O[C@H]2CC[C@H](NC(=O)c3ccc(N4CCC(CN5CCC(n6ccc7c(N8CCC(=O)NC8=O)ncnc76)CC5)CC4)cc3)CC2)cc1Cl [EAR195, N-((1r,4r)-4-(3-chloro-4-cyanophenoxy)cyclohexyl)-4-(4-((4-(4-(2,4-dioxotetrahydropyrimidin-1(2H)-yl)-7H-pyrrolo[2,3-d]pyrimidin-7-yl)piperidin-1-yl)methyl)piperidin-1-yl)benzamide hydrochloride] | ≥ 50
11 | N#Cc1ccc(O[C@H]2CC[C@H](NC(=O)c3cnc(N4CCC(CN5CCC(n6ccc7c(N8CCC(=O)NC8=O)ncnc76)CC5)CC4)cn3)CC2)cc1Cl [EAR196, N-((1r,4r)-4-(3-Chloro-4-cyanophenoxy)cyclohexyl)-5-(4-((4-(4-(2,4-dioxotetrahydropyrimidin-1(2H)-yl)-7H-pyrrolo[2,3-d]pyrimidin-7-yl)piperidin-1-yl)methyl)piperidin-1-yl)pyrazine-2-carboxamide hydrochloride] | ≥ 50
12 | N#Cc1ccc(O[C@H]2CC[C@H](NC(=O)c3ccc(N4CCC(CN5CCC(n6ccc7c(N8CCC(=O)NC8=O)nccc76)CC5)CC4)cc3)CC2)cc1Cl [EAR197, N-((1r,4r)-4-(3-Chloro-4-cyanophenoxy)cyclohexyl)-4-(4-((4-(4-(2,4-dioxotetrahydropyrimidin-1(2H)-yl)-1H-pyrrolo[3,2-c]pyridin-1-yl)piperidin-1-yl)methyl)piperidin-1-yl)benzamide] | ≥ 50
13 | N#Cc1ccc(O[C@H]2CC[C@H](NC(=O)c3ccc(N4CCC(CN5CCC(n6ncc7c(N8CCC(=O)NC8=O)nccc76)CC5)CC4)cc3)CC2)cc1Cl [EAR199, N-((1r,4r)-4-(3-Chloro-4-cyanophenoxy)cyclohexyl)-4-(4-((4-(4-(2,4-dioxotetrahydropyrimidin-1(2H)-yl)-1H-pyrazolo[4,3-c]pyridin-1-yl)piperidin-1-yl)methyl)piperidin-1-yl)benzamide] | ≥ 50
14 | N#Cc1ccc(O[C@H]2CC[C@H](NC(=O)c3cnc(N4CCC(CN5CCC(n6ccc7c(N8CCC(=O)NC8=O)ncnc76)CC5)CC4)nc3)CC2)cc1Cl [EAR200, N-((1r,4r)-4-(3-Chloro-4-cyanophenoxy)cyclohexyl)-2-(4-((4-(4-(2,4-dioxotetrahydropyrimidin-1(2H)-yl)-7H-pyrrolo[2,3-d]pyrimidin-7-yl)piperidin-1-yl)methyl)piperidin-1-yl)pyrimidine-5-carboxamide hydrochloride] | ≥ 50
15 | CN(c1ccc(C#N)c(Cl)c1)[C@H]1CC[C@H](NC(=O)c2ccc(N3CCC(CN4CCC(n5ccc6c(N7CCC(=O)NC7=O)cc(F)cc65)CC4)CC3)nn2)CC1 [EAR201, N-((1r,4r)-4-((3-Chloro-4-cyanophenyl)(methyl)amino)cyclohexyl)-6-(4-((4-(4-(2,4-dioxotetrahydropyrimidin-1(2H)-yl)-6-fluoro-1H-indol-1-yl)piperidin-1-yl)methyl)piperidin-1-yl)pyridazine-3-carboxamide hydrochloride] | ≥ 50
16 | N#Cc1ccc(O[C@H]2CC[C@H](NC(=O)c3cnc(N4CCC(CN5CCC(n6ccc7c(N8CCC(=O)NC8=O)cc(F)cc76)CC5)CC4)cn3)CC2)cc1Cl [EAR202, N-((1r,4r)-4-(3-Chloro-4-cyanophenoxy)cyclohexyl)-5-(4-((4-(4-(2,4-dioxotetrahydropyrimidin-1(2H)-yl)-6-fluoro-1H-indol-1-yl)piperidin-1-yl)methyl)piperidin-1-yl)pyrazine-2-carboxamide hydrochloride] | ≥ 50
17 | N#Cc1ccc(O[C@H]2CC[C@H](NC(=O)c3cnc(N4CCC(CN5CCC(n6ncc7c(N8CCC(=O)NC8=O)nccc76)CC5)CC4)cn3)CC2)cc1Cl [EAR203, N-((1r,4r)-4-(3-Chloro-4-cyanophenoxy)cyclohexyl)-5-(4-((4-(4-(2,4-dioxotetrahydropyrimidin-1(2H)-yl)-1H-pyrazolo[4,3-c]pyridin-1-yl)piperidin-1-yl)methyl)piperidin-1-yl)pyrazine-2-carboxamide hydrochloride] | ≥ 50
18 | N#Cc1ccc(O[C@H]2CC[C@H](NC(=O)c3ccc(N4CCC(CN5CCC(n6ccc7c(N8CCC(=O)NC8=O)nccc76)CC5)CC4)nn3)CC2)cc1C(F)(F)F [EAR204, N-((1r,4r)-4-(4-Cyano-3-(trifluoromethyl)phenoxy)cyclohexyl)-6-(4-((4-(4-(2,4-dioxotetrahydropyrimidin-1(2H)-yl)-1H-pyrrolo[3,2-c]pyridin-1-yl)piperidin-1-yl)methyl)piperidin-1-yl)pyridazine-3-carboxamide] | ≥ 50
19 | N#Cc1ccc(O[C@H]2CC[C@H](NC(=O)c3ccc(N4CCC(CN5CCC(n6ccc7c(N8CCC(=O)NC8=O)cccc76)CC5)CC4)c(F)c3)CC2)cc1Cl [EAR206, N-((1r,4r)-4-(3-Chloro-4-cyanophenoxy)cyclohexyl)-4-(4-((4-(4-(2,4-dioxotetrahydropyrimidin-1(2H)-yl)-1H-indol-1-yl)piperidin-1-yl)methyl)piperidin-1-yl)-3-fluorobenzamide] | ≥ 50
20 | N#Cc1ccc(O[C@H]2CC[C@H](NC(=O)c3ccc(N4CCC(CN5CCC(n6ncc7c(N8CCC(=O)NC8=O)nccc76)CC5)CC4)nn3)CC2)cc1C(F)(F)F [EAR209, N-((1r,4r)-4-(4-cyano-3-(trifluoromethyl)phenoxy)cyclohexyl)-6-(4-((4-(4-(2,4-dioxotetrahydropyrimidin-1(2H)-yl)-1H-pyrazolo[4,3-c]pyridin-1-yl)piperidin-1-yl)methyl)piperidin-1-yl)pyridazine-3-carboxamide] | ≥ 50
